The NIST ThermoML archive (doi:10.1016/j.tca.2007.05.009)
Where “and” joins values, the source holds several entries; their conditions need not be identical. Identical values can stand only once.

Conditions: Crystal

CC/N=C(/N)S [ethylthiourea]
Conditions	vapor or sublimation pressure
356.5 K, Calculated from knudsen effusion weight loss	0.000282 kPa
357 K, Calculated from knudsen effusion weight loss	0.000309 kPa
360 K, Torsion effusion method	0.000331 kPa
360.5 K, Calculated from knudsen effusion weight loss	0.000417 kPa
361 K, Torsion effusion method	0.000437 kPa
362 K, Calculated from knudsen effusion weight loss	0.00049 kPa
363 K, Torsion effusion method	0.000447 kPa
364 K, Torsion effusion method	0.00055 kPa
365 K, Torsion effusion method	0.000661 kPa
366 K, Torsion effusion method	0.000631 kPa
366.5 K, Torsion effusion method	0.000813 kPa
367 K, Torsion effusion method	0.000741 kPa
367.5 K, Calculated from knudsen effusion weight loss	0.000912 kPa
368 K, Torsion effusion method	0.000912 kPa and 0.000646 kPa
368.5 K, Torsion effusion method	0.000794 kPa
369 K, Torsion effusion method	0.000891 kPa
369.5 K, Torsion effusion method	0.001175 kPa
370 K, Torsion effusion method	0.001047 kPa and 0.000871 kPa
370.5 K, Torsion effusion method	0.001175 kPa
371 K, Torsion effusion method	0.001047 kPa and 0.001288 kPa and 0.001096 kPa
372 K, Torsion effusion method	0.000977 kPa
373 K, Torsion effusion method	0.001288 kPa
374 K, Torsion effusion method	0.00138 kPa and 0.001738 kPa
374.5 K, Torsion effusion method	0.001349 kPa
375 K, Torsion effusion method	0.001862 kPa [middle of 4 runs]
376 K, Torsion effusion method	0.001778 kPa [middle of 4 runs]
377 K, Torsion effusion method	0.001905 kPa and 0.001698 kPa
378 K, Torsion effusion method	0.002239 kPa [middle of 4 runs]
379 K, Torsion effusion method	0.002692 kPa and 0.002884 kPa
379.5 K, Torsion effusion method	0.00263 kPa
380 K, Torsion effusion method	0.002951 kPa and 0.002188 kPa
380.5 K, Torsion effusion method	0.002291 kPa
